From patent US8546377B2 (AbbVie Inc., priority 2009, dated 2013)
Entries after “also recorded” stand apart in the source; their conditions may differ. Read-outs that look alike come from different tables or passages of the source.

Tests used:
5HT2B receptors = target: T1, 5HT2B receptors (Homo sapiens, UniProt P41595); assay: Human 5-HT2B functional assay in CHO-K1 cells (calcium flux, FLIPR); type: cell-based; settings: for Emax: CHO-K1 cells, percentage relative to the effect of serotonin, read-out: Emax (%), 5-HT2B Agonist Activity
T1 construct: expressed in transfected cells; host or cells: CHO-K1 cells
T1 sequence (P41595 whole entry): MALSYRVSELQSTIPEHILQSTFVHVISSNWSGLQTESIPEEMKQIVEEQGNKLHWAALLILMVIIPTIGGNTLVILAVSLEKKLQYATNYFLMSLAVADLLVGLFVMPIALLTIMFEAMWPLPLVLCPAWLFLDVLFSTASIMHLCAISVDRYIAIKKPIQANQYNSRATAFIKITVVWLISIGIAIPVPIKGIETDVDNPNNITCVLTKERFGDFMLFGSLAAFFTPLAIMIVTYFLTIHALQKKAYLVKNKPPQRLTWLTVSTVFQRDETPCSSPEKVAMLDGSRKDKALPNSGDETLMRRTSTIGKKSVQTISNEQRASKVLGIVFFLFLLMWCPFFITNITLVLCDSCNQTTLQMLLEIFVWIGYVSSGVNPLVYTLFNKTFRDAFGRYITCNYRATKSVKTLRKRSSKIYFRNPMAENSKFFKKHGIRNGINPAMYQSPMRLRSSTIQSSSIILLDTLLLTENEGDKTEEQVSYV
How it was run: (§1)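 EC50 came from a 4-parameter logistic fit, with Emax expressed relative to serotonin, of intracellular Ca2+ rises read on FLIPR at 480/530 nm, 25° C, over 3 min. Compounds ran from 10 μM in six 1:10 steps (0.2% DMSO) on serum-starved CHO-K1 transfectants pre-loaded 60 min with Ca4 dye and probenecid.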

[1] = target: T2, human serotonin 5-HT2c receptor (Homo sapiens, UniProt P28335); assay: Human 5-HT2C receptor radioligand binding assay (agonist site, [125I](±)DOI); settings: membranes of transfected CHO cells, 0.2 nM [125I](±)DOI, 15 minutes at 37° C.
T2 construct: expressed in transfected cells; host or cells: CHO cells (membrane homogenate)
T2 sequence (P28335 33-458): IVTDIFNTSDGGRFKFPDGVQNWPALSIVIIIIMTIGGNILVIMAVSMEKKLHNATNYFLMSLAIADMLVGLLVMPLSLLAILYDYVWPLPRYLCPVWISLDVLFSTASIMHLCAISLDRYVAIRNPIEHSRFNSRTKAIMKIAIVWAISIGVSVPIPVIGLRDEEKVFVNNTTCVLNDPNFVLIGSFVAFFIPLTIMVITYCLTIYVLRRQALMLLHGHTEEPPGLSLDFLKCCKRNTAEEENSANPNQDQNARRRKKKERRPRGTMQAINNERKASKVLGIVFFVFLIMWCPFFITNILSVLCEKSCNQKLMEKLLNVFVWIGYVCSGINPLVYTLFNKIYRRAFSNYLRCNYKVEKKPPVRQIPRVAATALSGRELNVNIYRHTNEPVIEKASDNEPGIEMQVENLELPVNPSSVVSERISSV
How it was run: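 Affinity for the agonist site measured by radioligand binding in transfected CHO cells expressing the human receptor, using [125I](±)DOI.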

5HT2C receptors [2] = target: T3, 5HT2C receptors (Homo sapiens, UniProt P28335); assay: Human 5-HT2C functional assay in 1321N1 cells (intracellular calcium, FLIPR); type: cell-based; parameters: expressed in transfected cells; host or cells: 1321N1 cells; settings: for EC50: 1321N1 cells stably transfected, maximum calcium response, read-out: EC50 (μM), 5-HT2c Agonist Activity
T3 sequence (P28335 33-458): T2 sequence (P28335 33-458)
Procedure: (ii) Human 5-HT2C Functional Assay in 1321N1 Cells
Functional activity was determined by testing the effect of the compounds on intracellular calcium levels in 1321N1 cells stably transfected with the human 5-HT2C receptor. Cells were seeded into 96-well plates at 50,000 cells/well and grown overnight in tissue culture medium (DMEM with Glutamax I (Invitrogen), containing 10% dFCS, 50 μg/mL Gentamicin, 400 μg/mL Geneticin) at 37° C. and 7% CO2. Growth medium was replaced by medium without dFCS for overnight incubation. Cells were loaded with a fluorescent calcium-sensitive dye in the presence of 1% probenicid according to the manufacturer's protocol (Fluo4 AM, Molecular Devices). Serial compound dilutions (final concentrations 10^−10 to 10^−5 M) were added to the cells either alone or in the presence of serotonin (10^−9 M) and the maximum calcium response was determined using a FLIPR instrument (Molecular Devices). Concentration-response curves were fitted using a four-parameter logistic equation (GraphPad Prism). The concentration at which the compound exerts half its maximal effect is named the ‘effective concentration 50’ or ‘EC50’ and is listed in Table 2.
Emax is the maximum functional response or efficacy expressed as a percentage relative to the effect of serotonin.

5HT2C receptors [3] = target: T3, 5HT2C receptors; assay: Human 5-HT2C functional assay in CHO-K1 cells (calcium flux, FLIPR); type: cell-based; parameters: expressed in transfected cells; host or cells: CHO-K1 cells; settings: for Emax: percentage relative to the effect of serotonin
How it was run: as §1

[4] = test system: AMP-induced hyperactivity; assay: d-Amphetamine-induced hyperlocomotion in mice; type: in vivo; settings: test compound ip 30 minutes before d-amphetamine 2.0 mg/kg sc, FIG. 1
Excerpt: (v) Assessment of Effects on Psychostimulant-Induced Hyperlocomotion in Mice
In both humans and experimental animals amphetamine profoundly affects motor activity, sensorimotor function, sleep, attention, aggressive and sexual behaviors, learning and memory, operant behaviors, appetite and food intake. In addition, amphetamine induces psychotic reactions in normal individuals and exacerbates symptoms of schizophrenia in patients. In experimental animals several distinct behaviors are considered to be correlates of amphetamine psychosis. For example, amphetamine-induced hyperactivity in rodents is believed to model the psychotic symptoms of schizophrenia. Reversal of these behaviors is used to predict potential antipsychotic activity of drugs in pre-clinical studies.
Male NMRI mice (5-week old, Janvier, France) or C57BL/6J mice (6-week old, Janvier, France) were group housed and allowed ad-libitum access to food and water. A 12 hour light/dark cycle was imposed with lights-on period between 0530 and 1730 hours. All testing occurred between 700 and 1300 hours. All procedures were approved by Abbott Institutional Animal Care and Use Committee (USA) or Animal Welfare Officer (Germany) and were conducted in accordance with the National Institutes of Health Guide for Care and Use of Laboratory Animals guidelines and applicable national laws in the facilities accredited by the Association for the Assessment and Accreditation of Laboratory Animal Care.
On the day of experiment, animals were brought from the animal facility into the experimental room and were allowed to acclimatize for at least 30 minutes. Animals were then placed in the test cages for a habituation period of 60 minutes. The animals were then injected ip with the test compound and returned to the test cage. 30 Minutes later, the mice were injected with d-amphetamine (2.0 mg/kg, AMP, Sigma, #A5880, sc) or phencyclidine (2.0 mg/kg, PCP, Sigma, #P3029, sc), and returned to the test cages for 90 minutes. […] The analyzed data were: fine movements, ambulations and total movements (fine+ambulations). […]

h-5-HT6 receptor = target: T4, h-5-HT6 receptor (Homo sapiens, UniProt P50406); assay: Human 5-HT6 receptor radioligand binding assay ([3H]-LSD, HEK293 membranes)
T4 construct: expressed in transfected cells; host or cells: HEK293 cells (membrane preparation)
T4 sequence (P50406 whole entry): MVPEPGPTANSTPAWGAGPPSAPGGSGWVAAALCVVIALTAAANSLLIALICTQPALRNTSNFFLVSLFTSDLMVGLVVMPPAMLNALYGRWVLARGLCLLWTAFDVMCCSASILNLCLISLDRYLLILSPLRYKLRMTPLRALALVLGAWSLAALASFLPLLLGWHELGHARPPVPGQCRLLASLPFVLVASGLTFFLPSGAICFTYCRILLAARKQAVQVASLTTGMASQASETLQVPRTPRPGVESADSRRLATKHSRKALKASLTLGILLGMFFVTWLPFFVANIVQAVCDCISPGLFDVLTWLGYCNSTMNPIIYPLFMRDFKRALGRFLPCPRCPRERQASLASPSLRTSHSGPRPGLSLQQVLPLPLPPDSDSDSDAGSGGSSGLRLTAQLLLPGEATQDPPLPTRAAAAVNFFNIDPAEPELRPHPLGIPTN
Procedure: (iv) Human 5-HT6 Receptor Radioligand Binding Assay
Preparation of Membranes by Ultrasonic Treatment and Differential Centrifugation
Cells from stable clonal cell lines expressing the corresponding receptor (5-HT6) were washed with PBS (without Ca^++, Mg^++) and harvested in PBS with 0.02% EDTA. The cells were collected by centrifugation at 500 g for 10 minutes at 4° C., washed with PBS and centrifuged (500 g, 10 minutes at 4° C.). The pellets were stored at −80° C. until use. For membrane preparation, the thawed cell pellet was resuspended in ice-cold sucrose buffer (0.25 M sucrose, 10 mM HEPES (pH 7.4), 1 mM phenylmethylsulfonyl fluoride (PMSF) in DMSO, 5 μg/ml Pepstatin-A, 3 mM EDTA, 0.025% Bacitracin) and homogenized with a Branson Sonifier W-250 (Settings: Timer 4; Output Control 3; Duty Cycle constant; 2 to 3 cycles). Cell disruption was checked with the aid of a microscope. Remaining unbroken cells were pelleted at 1,000 g for 10 minutes at 4° C. The sucrose buffer supernatant was then centrifuged at 60,000 g for 1 hour at 4° C. (Beckman Ultrazentrifuge XL 80). The pellet was resuspended in 30 mL of ice-cold Tris buffer (20 mM TRIS (pH 7.4), 5 μg/mL Pepstatin A, 0.1 mM PMSF, 3 mM EDTA) by pipetting through a 10 mL serological pipet and centrifuged for 1 hour at 4° C. at 60,000 g. A final resuspension was performed in a small volume of ice-cold Tris buffer (see above) by pressing through a serological pipet followed by ultrasonic treatment with a Branson Sonifier W-250 (Settings: Timer 1; Output Control 3; Duty Cycle constant; 1 cycle). Protein concentration was determined (BCA-Kit; Pierce) and aliquots stored at −80° C. or in liquid nitrogen for long-term storage.
Receptor Binding Experiments
All receptor binding experiments were carried out in the corresponding assay buffer in a total volume of 200 μL in the presence of various concentrations of test compound (10^−5 M to 10^−9 M, tenfold serial dilution, duplicate determinations). The assays were terminated by filtration on polyethylenimine (PEI 0.1% or 0.3%) presoaked Packard Unifilter Plates (GF/C or GF/B) with a Tomtec MachIII U 96 well-plate harvester. After the plates had been dried for 2 hours at 55° C. in a drying chamber scintillation cocktail (BetaPlate Scint; PerkinElmer) was added. Radioactivity was measured in a Microbeta Trilux two hours after the addition of the scintillation mixture.
5-HT6 Receptor Binding Assay
HEK293 cells stably expressing the h-5-HT6 receptor (NCBI Reference Sequence XM 001435) were cultured in RPMI1640 medium supplemented with 25 mM HEPES, 10% fetal calf serum and 1-2 mM glutamine. The membrane preparation was performed as described above. […] On the day of the assay, the membranes were thawed, diluted in assay buffer (50 mM Tris-HCl, 5 mM CaCl2, 0.1% ascorbic acid, 10 μM pargyline, pH 7.4) to a concentration of 8 μg protein/assay and homogenized by gentle vortexing. […] Non-specific binding was defined with 1 μM methiothepin. The binding reaction was carried out for 3.5 hours at room temperature. During the incubation, the plates were shaken on a plate shaker at 100 rpm and terminated by filtration on Packard Unifilter GF/C (0.1% PEI) plates, followed by 2 wash cycles with ice-cold 50 mM Tris-HCl, 5 mM CaCl2.
Data derived from liquid scintillation counting were analyzed by iterative non-linear regression analysis with the use of the Statistical Analysis System (SAS): a program similar to “LIGAND” as described by Munson and Rodbard (Anal. Biochem. 1980, 107, 220-239). Fitting was performed according to formulae described by Feldman (Anal. Biochem. 1972, 48, 317-338). IC50, nH and Ki values were expressed as geometrical mean.
The results of the receptor binding studies are expressed as receptor binding constants Ki(5-HT6) as described herein before, and given in Table 5.

[5] = CHO-K1 cells over-expressing 5HT2B, calcium flux, read-out: EC50 (μM), 5-HT2B Agonist Activity
[6] = CHO-K1 cells over-expressing 5HT2C, calcium flux, read-out: EC50 (μM), 5-HT2c Agonist Activity
[7] = HEK293 membranes, 1 nM [3H]-lysergic acid diethylamide, 3.5 hours at room temperature, read-out: Ki (μM), 5-HT6 Agonist Site Radioligand Binding
[8] = CHO-K1, read-out: Emax (%), 5-HT2c Agonist Activity, CHO-K1 cells

O=C1C[C@H]2CNCCN2c2cc(CCc3ccccc3)ccc2N1 [Example 42, (4aS)-10-(2-phenylethyl)-1,2,3,4,4a,5-hexahydropyrazino[1,2-a][1,5]benzodiazepin-6(7H)-one]
EC50 (5HT2B receptors; [5]): 5 µM
Emax (5HT2B receptors): 55%
Ki [1]: 0.00071 µM
EC50 (5HT2C receptors [2]): 0.0011 µM
Emax (5HT2C receptors [2]; 1321N1 cells, percentage relative to the effect of serotonin, read-out: Emax (%), 5-HT2c Agonist Activity): 95%
EC50 (5HT2C receptors [3]; [6]): 0.0004 µM
Emax (5HT2C receptors [3]; CHO-K1 cells, read-out: Emax (%), 5-HT2c Agonist Activity): > 120%
AMP-induced hyperactivity [4]: attenuated AMP-induced hyperactivity significantly and in a dose dependent manner; also recorded: concentration-dependent effects of Example 42 attenuating the affect of d-amphetamine

O=C1NCC2CN(Cc3ccccc3)CCN2c2ccc(NS(=O)(=O)c3ccccc3)cc21 (stereo not shown) [Example 47, N-(3-benzyl-7-oxo-1,2,3,4,4a,5,6,7-octahydropyrazino[1,2-a][1,4]benzodiazepin-9-yl)benzenesulfonamide]
Ki [1]: 33 µM
EC50 (5HT2C receptors [2]): > 10 µM
Ki (h-5-HT6 receptor; [7]): 0.821 µM

O=C1CC2CNCCN2c2ccc(NS(=O)(=O)c3ccccc3)cc2N1 (stereo not shown) [Example 76, N-(6-oxo-1,2,3,4,4a,5,6,7-octahydropyrazino[1,2-a][1,5]benzodiazepin-9-yl)benzenesulfonamide]
Ki (h-5-HT6 receptor; [7]): 0.025 µM
EC50 (5HT2C receptors [3]; [6]): > 100 µM

O=C1CC2CNCCN2c2ccc(S(=O)(=O)c3ccccc3)cc2N1 (stereo not shown) [Example 112, 9-(phenylsulfonyl)-1,2,3,4,4a,5-hexahydropyrazino[1,2-a][1,5]benzodiazepin-6(7H)-one]
EC50 (5HT2B receptors; [5]): 0.9 µM
Emax (5HT2B receptors): 90%
Ki (h-5-HT6 receptor; [7]): 0.017 µM
EC50 (5HT2C receptors [3]; [6]): > 10 µM

O=C1NCC2CNCCN2c2ccc(NS(=O)(=O)c3cccc(C(F)(F)F)c3)cc21 (stereo not shown) [Example 184, N-(7-oxo-1,2,3,4,4a,5,6,7-octahydropyrazino[1,2-a][1,4]benzodiazepin-9-yl)-3-(trifluoromethyl)benzenesulfonamide]
EC50 (5HT2B receptors; [5]): > 10 µM
Ki (h-5-HT6 receptor; [7]): 0.008 µM
EC50 (5HT2C receptors [3]; [6]): > 10 µM

Cc1cccc2c1OCC[C@H]1CNCCN21 [Example 226, (4aS)-8-methyl-2,3,4,4a,5,6-hexahydro-1H-pyrazino[2,1-d][1,5]benzoxazepine]
EC50 (5HT2B receptors): > 10 µM
Ki (h-5-HT6 receptor): 2.06 µM
EC50 (5HT2C receptors [3]): 0.0008 µM
Emax (5HT2C receptors [3]; [8]): 90%

CN1CCN2c3cccc(F)c3OCC[C@H]2C1 [Example 231, (4aS)-8-fluoro-3-methyl-2,3,4,4a,5,6-hexahydro-1H-pyrazino[2,1-d][1,5]benzoxazepine]
EC50 (5HT2B receptors): > 10 µM
Ki (h-5-HT6 receptor): 0.855 µM
EC50 (5HT2C receptors [3]): 0.004 µM
Emax (5HT2C receptors [3]; [8]): 85%
